In the METLIN SMRT retention time set (Domingo-Almenara et al. 2019) one finds RP-LC retention time data, which are given here for 80 compounds.

The nature of this series: gradient 5% acetonitrile 3 min, to 50% in 2 min, to 85% in 15 min, held 3 min, 100 µL/min. Conditions: column: Zorbax Extend-C18 2.1 x 50 mm; eluents: water / acetonitrile, 0.1% formic acid. The procedure, abridged: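 Pure standards were run in mixtures of ~100 molecules by HPLC coupled to a quadrupole time-of-flight mass spectrometer. The column was a Zorbax Extend-C18 (2.1 × 50 mm, 1.8 μm) at 100 μL/min, with water and acetonitrile each containing 0.1% formic acid, in positive and negative ionization mode. Dead and dwell volumes were 40 μL and 900 μL. Retention time was taken from computationally picked adduct peaks, each manually inspected, with data collected over 3 months.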
The compound `Cc1cc(C)cc(N2C=C(C(=O)N3CCOCC3)S(=O)(=O)c3ccccc32)c1` displayed an RP-LC retention time of 826 s.
`CCCNC(=O)C1CCN(c2ccc(SCC(=O)Nc3cc(C)ccc3OC)nn2)CC1`: the RP-LC retention time turned out to be 700 s.
Compound `Cc1nnc2n1CCN(C(=O)c1n[nH]c3ccccc13)C2` returned an RP-LC retention time of 558 s.
`Cc1cccc(N2CCN(c3cc(C(=O)O)c4cc(NS(C)(=O)=O)ccc4n3)CC2)c1C`: the RP-LC retention time is 715 s.
For `Cc1cc(S(=O)(=O)N2CCCC(Cn3cnc4cccnc43)C2)ccc1Cl` (stereo not given), the RP-LC retention time was 866 s.
The result for `CCn1cc(C(=O)Nc2cccc(C)c2)c(S(=O)(=O)N2CCSCC2)n1` reads 902 s; that for `O=c1n(CC2CC2)nc2n1CCC(NS(=O)(=O)c1cccnc1)CC2` (stereo not given), 621 s; that for `O=C(NCCC1=CCCCC1)c1ccc2ncnc(N3CCCC3)c2c1`, 688 s.
With `COc1cccc(N2CCN(C(=O)CN3CCN(Cc4ccccc4)C(=O)C3=O)CC2)c1`, the RP-LC retention time was 726 s.
Regarding `CCOC(=O)c1ccc(OC(=O)c2cn(CC)c(=O)c3ccccc23)cc1`, the RP-LC retention time was 1110 s.
`CC(=O)OC1CCN(C(=O)c2cccc(C#N)c2)CC1` came in with an RP-LC retention time of 706 s.
In turn, `O=C(CN1C(=O)CCS(=O)(=O)c2ccccc21)Nc1ccc(C(F)(F)F)cc1` gave an RP-LC retention time of 843 s.
Regarding `CC1=NS(=O)(=O)N(Cc2ccccc2)C=C1C(=O)OCc1ccccc1C`, the RP-LC retention time was 1170 s.
In the case of `Cn1c(=O)oc2cc(-c3noc(-c4cc(F)ccc4F)n3)ccc21`, the RP-LC retention time came out at 1010 s.
Take `Cc1ccc(NC(=O)Cn2c(=O)n(-c3ccc(F)cc3)c(=O)c3c2cc(C)n3C)c(Cl)c1`: the RP-LC retention time amounted to 946 s.
Take `Cc1nn(-c2ccc(N3CCOCC3)nn2)c(C)c1CCC(=O)Nc1ccccc1F`: the RP-LC retention time is 709 s.
As for `COc1ccc(-c2nnc(-c3ccc(C)c(S(=O)(=O)N4CCCCC4)c3)o2)cc1`, the RP-LC retention time came to 1120 s.
Then `Cc1cccc(-c2nc(C)c(CCNC(=O)C(=O)Nc3ccc([N+](=O)[O-])cc3)s2)c1`, with 1020 s; and `COC(=O)c1c(NC(C)c2ccccc2)c2cccc(Cl)c2[nH]c1=O` (stereo not given), with 864 s; and `O=C(NCC1CCCO1)C1CCCN(c2ccc(Sc3ccc(Br)cc3)nn2)C1` (stereo not given), with 793 s.
`CCOc1ccc(CNC(=O)C2CCCN(c3cc(=O)n(C)c(=O)n3CC)C2)cc1OCC` (stereo not given) showed an RP-LC retention time of 791 s.
For the compound `Cc1nnc2ccc(N3CCC(C(=O)NC(C)CCc4ccccc4)CC3)nn12` (stereo not given), the RP-LC retention time stood at 779 s.
The result for `Cc1cccc(OCc2nc(CCN(C)C(=O)NC3CCCC3)no2)c1` reads 894 s; that for `CCCn1c(=O)c(N2CCN(C(=O)CC(C)C)CC2)nc2ccccc21`, 1010 s; that for `Cc1nc(C(=O)Nc2ccc(F)cc2Cl)c(C)o1`, 1040 s.
On to `CCCCN(C)CCNC(=O)c1cc2cc3ccc(OC)cc3nc2o1`, for which the RP-LC retention time was found to be 641 s.
With `O=S(=O)(c1ccccc1Br)N1CCC(c2noc(-c3ccccc3)n2)CC1`, the RP-LC retention time was determined as 1160 s.
As for `CCc1ccc(S(=O)(=O)N2CCN(c3cc(C)nc(NC4CCCCC4)n3)CC2)cc1`, the RP-LC retention time worked out at 876 s.
In turn, `CC(C)NC(=O)c1cc(N(C)C)nc2c(Cl)cccc12` came in with an RP-LC retention time of 816 s.
On to `Cn1c(N2CCCC(C(=O)NC3CCCCCC3)C2)cc(=O)n(C)c1=O` (stereo not given), for which the RP-LC retention time was found to be 715 s.
In turn, `CCOC(=O)c1[nH]c(C)c(CCC(=O)N2CCC(C(=O)NCc3ccccc3OC)CC2)c1C` showed an RP-LC retention time of 800 s.
The result for `CCCCn1c(CN2CCOCC2)nc2cc(NC(=O)C(C)C)ccc21` reads 648 s.
The result for `CCCCNC(=O)c1cccc2c1CCN2C(=O)C1CC1` reads 764 s.
For `CCOc1ccc(OCC)c(NC(=O)CSc2cc(N3CCC(C(=O)NC4CC4)CC3)ncn2)c1`, the RP-LC retention time was 860 s.
The result for `Cc1ccccc1-c1noc(Cn2ccn(-c3c(C)cccc3C)c(=O)c2=O)n1` reads 923 s; that for `Cc1nc2cc(-c3noc(Cc4ccc(Br)cc4)n3)ccc2n(C)c1=O`, 1020 s.
The result for `COc1ccccc1CNC(=O)C1CCN(S(=O)(=O)c2ccc3[nH]c(=O)ccc3c2)CC1` reads 714 s; that for `CSc1ccc(-c2noc(CN3C(=O)C(C)Oc4ccccc43)n2)cc1` (stereo not given), 1140 s.
Turning to `COc1ccc(Cc2nc3nccc(-c4ccccn4)n3n2)cc1`, the RP-LC retention time is 768 s.
Compound `O=C(NCc1ccccc1Br)c1cn2ccccc2n1` had an RP-LC retention time of 736 s.
For the compound `CSc1ccc(CNC(=O)c2cn3ccc(C)cc3n2)cc1`, the RP-LC retention time is 699 s.
For the compound `CCc1cc(C(=O)Nc2ccc(C)cc2)nc2ccnn12`, the RP-LC retention time came to 1060 s.
With `O=C(NCCc1c[nH]c2ccc(F)cc12)c1cncc(Br)c1`, the RP-LC retention time came out at 796 s.
In the case of `Cc1ccc(Sc2nccnc2N2CCCC(C(=O)NCc3ccc(F)cc3F)C2)cc1` (stereo not given), the RP-LC retention time came out at 1130 s.
The result for `CCOc1ccc(-c2csc(Nc3ccccn3)n2)cc1` reads 910 s; that for `O=C(Cc1ccccc1Cl)NCCCn1cccc1`, 773 s.
The compound `O=C(CCn1c(N2CCCC2)nc2ccsc2c1=O)NCc1ccc(F)cc1F` gave an RP-LC retention time of 779 s.
The result for `COc1cc(C(=O)NC(C)C(=O)Nc2nc3ccccc3[nH]2)cc(OC)c1OC` (stereo not given) reads 767 s; that for `O=C(NCCCN1CCOCC1)C1CCCN(c2ncc(-c3cccc(F)c3)cn2)C1` (stereo not given), 653 s.
`CC(C)=C1SC(N2CCN(c3cccc(C(F)(F)F)c3)CC2)=NC1=O`: the RP-LC retention time was found to be 922 s.
The compound `COc1cc(-c2nc3ccc(Cl)cn3c2Nc2ccc(C)cc2)ccc1O` gave an RP-LC retention time of 730 s.
Take `O=C(Cc1cc(-c2cc3ccccc3o2)on1)NCCc1c[nH]c2ccccc12`: the RP-LC retention time was 883 s.
`Cc1nc(-c2cn(C)c3ncccc23)sc1C(=O)Nc1ccc(F)c(F)c1` yielded an RP-LC retention time of 940 s.
Then `Cc1c(C(=O)NCCOc2cccc3cccnc23)cnn1-c1ccccc1`, with 593 s.
With `CC(Cc1ccco1)NC(=O)C1CCN(S(=O)(=O)c2ccc3c(c2)NC(=O)CO3)CC1` (stereo not given), the RP-LC retention time came out at 726 s.
`COc1ccc(CC(=O)Nc2ccc3c(c2)Sc2ncccc2C(=O)N3C)cc1Cl` returned an RP-LC retention time of 807 s.
Take `CCn1cc(CCNS(=O)(=O)Cc2ccccc2Cl)c2cccnc21`: the RP-LC retention time amounted to 804 s.
Take `Cc1cnc(C2CN(C(=O)c3cccn3C)C2)n1CC1CC1`: the RP-LC retention time came to 608 s.
Then `COc1ccc(Cl)cc1S(=O)(=O)N1CCC(C(=O)Nc2ccccc2)CC1`, with 913 s.
`Cc1ccc(NC(=O)Nc2cccc(-c3ccc(N4CCOCC4)nn3)c2)cc1F` came in with an RP-LC retention time of 739 s.
The compound `O=C(Nc1ccccc1)C1CCN(S(=O)(=O)c2cc(-c3noc(C4CC4)n3)cs2)CC1` yielded an RP-LC retention time of 1020 s.
Turning to `COc1ccc(OCCn2c(C(F)(F)F)nc3cc4c(cc32)OCCO4)cc1`, the RP-LC retention time turned out to be 985 s.
Consider `CCN1C(=O)CCc2cc(NC(=O)Cc3c(F)cccc3Cl)ccc21`, for which the RP-LC retention time amounted to 792 s.
For the compound `O=C(Cn1c(=O)oc2ccccc21)Nc1nc(-c2nc3ccccc3s2)cs1`, the RP-LC retention time worked out at 866 s.
As for `O=c1ccc(S(=O)(=O)N2CCCCC2)cn1Cc1ccccc1`, the RP-LC retention time was found to be 851 s.
Then `COc1ccc(C2CCCN2C(=O)Cc2cccs2)cc1` (stereo not given), with 875 s; and `CCCc1cc(N2CCN(C(=O)COc3ccc(F)cc3)CC2)nc2nnc(C)n12`, with 645 s; and `Cc1nc(C)c(C(=O)N2CCC(Oc3nc4c(C)ccc(C)c4s3)CC2)s1`, with 1090 s.
The result for `COc1ccc(NC(=O)Cn2c(N3CCOCC3)nc(C)cc2=O)cc1Cl` reads 1120 s.
Consider `COc1ccccc1-c1nnc(NC(=O)C2CCCN2S(=O)(=O)c2ccc(F)cc2)o1` (stereo not given), for which the RP-LC retention time is 717 s.
Then `O=C(Cn1nc(N2CCCCCC2)c2ccccc2c1=O)Nc1cccc(Cl)c1`, with 1180 s; and `CCOC(=O)c1[nH]c(C)c(CCC(=O)N2CCC(C(=O)NCCC(C)C)CC2)c1C`, with 798 s.
Compound `Nc1ccc(Cl)cc1C(=O)c1ccccc1Cl` yielded an RP-LC retention time of 1140 s.
The compound `CCn1ccc2c(cc(C(=O)Nc3ccc(Cl)cc3)n2C)c1=O` displayed an RP-LC retention time of 819 s.
`O=c1c2oc3ccccc3c2ncn1Cc1nc(-c2ccc(OC(F)(F)F)cc2)no1`: the RP-LC retention time was determined as 1050 s.
As for `COC(=O)c1cccc(C(=O)Nc2cc(C)ccc2C)n1`, the RP-LC retention time is 936 s.
Turning to `COc1ccc(N2CCN(C(=O)CCC(=O)N3CCCn4nc(-c5cccn5C)cc43)CC2)cc1`, the RP-LC retention time came out at 711 s.
The result for `CCOC(=O)c1cnc(N2CCN(c3ccccn3)CC2)c2ccccc12` reads 692 s.
Then `CCc1ccc(NC(=O)c2sc(-c3cccn3CC)nc2C)cc1`, with 1260 s.
The compound `Cc1ccccc1-c1nc(C2CCN(S(=O)(=O)c3ccc4c(c3)CCC4)CC2)no1` showed an RP-LC retention time of 1130 s.
